Assay results: the supplement of paper PMC10307832

Assays:
Test in all cases: relative viability (nuclei count vs DMSO), 5 days (fraction); higher = more cells survive
[1] = compound: NS(=O)(=O)OC[C@@H]1C[C@@H](n2ccc3c(N[C@H]4CCc5ccccc54)ncnc32)C[C@@H]1O [MLN4924] + CS(=O)(=O)N1CCN(Cc2cc3nc(-c4cccc5[nH]ncc45)nc(N4CCOCC4)c3s2)CC1 [Pictilisib] (partner 1 µM)
How it was run: (§1)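 One day after seeding in 1536-well plates, lung cancer cell lines were dosed by pin tool. Dosing was either single-drug or a fixed anchor-drug dose plus five library-drug doses (not always all listed) in √10 steps. After 5 days, nuclei were stained in one fix-and-stain step and counted on 4× images, and relative viability is the nuclei count of treated wells over that of vehicle wells, given as the median of duplicate plates.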

[2] = compound: NS(=O)(=O)OC[C@@H]1C[C@@H](n2ccc3c(N[C@H]4CCc5ccccc54)ncnc32)C[C@@H]1O [MLN4924] + O=C(c1cc(Cc2n[nH]c(=O)c3ccccc23)ccc1F)N1CCN(C(=O)C2CC2)CC1 [Olaparib] (partner 8 µM)
How it was run: as §1

[3] = compound: CC[C@H](C)N1C=C(C2=C(C=C(C=C21)C3=CN=C(C=C3)N4CCNCC4)C(=O)NCC5=C(C=C(NC5=O)C)C)C [GSK126] + COc1cccc2cc(-c3nc([C@H]4CC[C@H](C(=O)O)CC4)n4ncnc(N)c34)[nH]c12 [OSI-027] (partner 0.5 µM)
How it was run: as §1

[4] = compound: CC[C@H](C)N1C=C(C2=C(C=C(C=C21)C3=CN=C(C=C3)N4CCNCC4)C(=O)NCC5=C(C=C(NC5=O)C)C)C [GSK126] + O=C(c1cc(Cc2n[nH]c(=O)c3ccccc23)ccc1F)N1CCN(C(=O)C2CC2)CC1 [Olaparib] (partner 8 µM)
How it was run: as §1

Row | Cell Line | relative viability ([1]; first compound 0.04 µM) | relative viability ([1]; first compound 0.1265 µM) | relative viability ([1]; first compound 0.4 µM) | relative viability ([1]; first compound 1.265 µM) | relative viability ([1]; first compound 4 µM) | relative viability ([2]; first compound 0.04 µM) | relative viability ([2]; first compound 0.1265 µM) | relative viability ([2]; first compound 0.4 µM) | relative viability ([2]; first compound 1.265 µM) | relative viability ([2]; first compound 4 µM) | relative viability ([3]; first compound 0.08 µM) | relative viability ([3]; first compound 0.253 µM) | relative viability ([3]; first compound 0.8 µM) | relative viability ([3]; first compound 2.53 µM) | relative viability ([3]; first compound 8 µM) | relative viability ([4]; first compound 0.08 µM) | relative viability ([4]; first compound 0.253 µM) | relative viability ([4]; first compound 0.8 µM) | relative viability ([4]; first compound 2.53 µM) | relative viability ([4]; first compound 8 µM)
1 | LCLC-103H | 0.757 | 0.697 | 0.788 | 0.238 | 0.233 | 0.717 | 0.615 | 0.665 | 0.292 | 0.293 | 0.514 | 0.453 | 0.533 | 0.435 | 0.456 | 0.837 | 0.791 | 0.774 | 0.792 | 0.795
2 | SK-LU-1 | 0.411 | 0.505 | 0.383 | 0.171 | 0.172 | 0.493 | 0.433 | 0.256 | 0.157 | 0.172 | 0.435 | 0.37 | 0.401 | 0.416 | 0.387 | 0.555 | 0.452 | 0.45 | 0.396 | 0.482
3 | EKVX | 0.533 | 0.513 | 0.363 | 0.135 | 0.135 | 0.801 | 0.588 | 0.531 | 0.206 | 0.169 | 0.753 | 0.679 | 0.669 | 0.822 | 0.781 | 0.929 | 1 | 0.808 | 1.11 | 0.816
4 | HCC-366 | 0.232 | 0.496 | 0.326 | 0.102 | 0.0407 | 0.341 | 0.352 | 0.272 | 0.0846 | 0.0262 | 1.2 | 0.754 | 0.868 | 0.927 | 0.847 | 0.451 | 0.386 | 0.366 | 0.396 | 0.342
5 | NCI-H1650 | 0.373 | 0.245 | 0.182 | 0.124 | 0.183 | 0.609 | 0.616 | 0.34 | 0.175 | 0.166 | 0.834 | 0.594 | 0.703 | 0.684 | 0.681 | 0.742 | 0.849 | 0.761 | 0.784 | 0.901
6 | COR-L23 | 0.711 | 0.71 | 0.159 | 0.104 | 0.0964 | 0.32 | 0.331 | 0.199 | 0.124 | 0.114 | 1 | 0.725 | 0.645 | 0.824 | 0.694 | 0.422 | 0.33 | 0.33 | 0.354 | 0.387
7 | NCI-H647 | 0.318 | 0.469 | 0.274 | 0.0538 | 0.0717 | 0.392 | 0.125 | 0.0492 | 0.0302 | 0.0464 | 0.69 | 0.528 | 0.63 | 0.649 | 0.692 | 0.742 | 0.438 | 0.57 | 0.714 | 0.56
8 | LXF-289 | 0.683 | 0.688 | 0.374 | 0.134 | 0.0975 | 0.919 | 0.429 | 0.381 | 0.132 | 0.0927 | 0.838 | 0.86 | 0.784 | 0.877 | 0.768 | 1.12 | 1.11 | 1.05 | 1.01 | 1.02
